Read-outs that look alike come from different tables or passages of the source.
Columns and labels:
SARS-CoV-2 = experiment: microbe, parasite or virus in culture; format: cell-based; details: for EC50: read-out: Effective Concentration 50 (EC50), 50% virus proliferation inhibitory concentration
in vitro = details: African green monkey, Cytotoxic Concentration 50 (CC50)
[1] = Severe acute respiratory syndrome coronavirus 2, 48 h

| SMILES | Selectivity Index (SI) (Vero CCL-81 cells) | EC50 (SARS-CoV-2; [1]) [nM] | CC50 (in vitro) [nM] | fold greater effect (virus proliferation inhibitory ability) compared to Remdesivir (SARS-CoV-2) | CC50 (Vero CCL-81 cells; African green monkey) [nM] | EC50 (SARS-CoV-2) [nM] |
| --- | --- | --- | --- | --- | --- | --- |
| COc1cc2c3c(c4ccc(NS(C)(=O)=O)cc4c2cc1OC)CN1CCC[C@@H]1C3 [Compound 1, (R)-N-(2,3-dimethoxy-9,11,12,13,13a,14-hexahydrodibenzo-[f,h]pyrrolo[1,2-b]isoquinolin-6-yl)methanesulfonamide] | 52 | 35 | 1820 | – | – | – |
| COc1cc2c3c(c4ccc(NS(C)(=O)=O)cc4c2cc1OC)CN1CCCC[C@@H]1C3 [Compound 2, (R)-N-(2,3-dimethoxy-11,12,13,14,14a,15-hexahydro-9H-dibenzo[f,h]pirido[1,2-b]isoquinolin-6-yl)methanesulfonamide] | 10 | 13 | 126 | ~1,700 fold | – | – |
| COC(=O)Nc1ccc2c3c(c4cc(OC)c(OC)cc4c2c1)CC1CCCCN1C3 (centres unmarked) [Compound 3, methyl(2,3-dimethoxy-11,12,13,14,14a,15-hexahydro-9H-dibenzo[f,h]pirido[1,2-b]isoquinolin-6-yl)carbamate] | 19 | 17 | 317 | ~1,300 fold | – | – |
| CCC(CC)COC(=O)[C@H](C)N[P@](=O)(OC[C@H]1O[C@@](C#N)(c2ccc3c(N)ncnn23)[C@H](O)[C@@H]1O)Oc1ccccc1 [Remdesivir, reference compound] | 7.8 | 22000 | 172000 | – | 172000 | 22100 |
| COc1ccc2c3c(c4cc(OC)c(OC)cc4c2c1)C[C@H]1CCCN1C3 [antofine, reference compound] | 24 | – | 872 | – | – | 37 |
| COc1ccc2c3c(c4cc(OC)c(OC)cc4c2c1)C[C@H]1CCCCN1C3 [cryptopleurin, reference compound] | – | – | – | – | – | 11 |

Source: patent publication US20230233538A1, “COMPOSITION FOR TREATING CORONAVIRUS DISEASE-19, COMPRISING PHENANTHROINDOLIZIDINE AND PHENANTHROQUI[…] DERIVATIVES, OPTICAL ISOMER THEREOF, OR PHARMACEUTICALLY ACCEPTABLE SALTS THEREOF AS ACTIVE INGREDIENT” (priority 2020, published 2023)
